{
  "source": "paper PMC4811503",
  "about": "“A method for quantification of exportin-1 (XPO1) occupancy by Selective Inhibitor of Nuclear Export (SINE) compounds” (Oncotarget, 2015)",
  "key": {"[1]": {"assay": "MTT assay of unmodified and biotinylated SINE compounds (cell line not given)", "assay_type": "cell-based", "settings": "for IC50: cell line not named; for fold less cytotoxic compared to unmodified counterpart: ratio of MTT IC50 values"}, "[2]": {"tested_on": "nuclear export of the XPO1 cargo protein Rev-GFP in stably transfected U2OS cells", "assay": "Rev-GFP assay (nuclear retention of Rev-GFP)", "assay_type": "cell-based", "settings": "Homo sapiens", "source_text": "(§1) For this assay we utilized biotinylated LMB (b-LMB) as a tool compound to quantify the amount of XPO1 bound by SINE compounds (Figure 1). b-LMB was synthesized by coupling a biotin tag to LMB. We compared the inhibition of nuclear export and the cytotoxicity of b-LMB to that of the unmodified LMB. […] We then quantified the effects of these compounds on cell death in several cancer cell lines using an MTT cytotoxicity assay (Table 2).\nFor the typical Rev-GFP assay, U2OS cells stably expressing Rev-GFP [42] were cultured in 96 well plates at 7,500 - 15,000 cells/well. […] After fixation cells were stained with DAPI (Invitrogen) for 10 minutes at room temperature. Cells were imaged with a Nikon fluorescent microscope at 10X magnification and intensity of the GFP and nuclear area were measured and recorded. Cells were scored as either GFP nuclear positive or negative. Number of positive cells were divided by total number of cells in order to calculate percentage of cells with nuclear GFP per well."}, "XPO1": {"molecular_target": "XPO1 (Homo sapiens, UniProt O14980)", "sequence (O14980 whole entry)": "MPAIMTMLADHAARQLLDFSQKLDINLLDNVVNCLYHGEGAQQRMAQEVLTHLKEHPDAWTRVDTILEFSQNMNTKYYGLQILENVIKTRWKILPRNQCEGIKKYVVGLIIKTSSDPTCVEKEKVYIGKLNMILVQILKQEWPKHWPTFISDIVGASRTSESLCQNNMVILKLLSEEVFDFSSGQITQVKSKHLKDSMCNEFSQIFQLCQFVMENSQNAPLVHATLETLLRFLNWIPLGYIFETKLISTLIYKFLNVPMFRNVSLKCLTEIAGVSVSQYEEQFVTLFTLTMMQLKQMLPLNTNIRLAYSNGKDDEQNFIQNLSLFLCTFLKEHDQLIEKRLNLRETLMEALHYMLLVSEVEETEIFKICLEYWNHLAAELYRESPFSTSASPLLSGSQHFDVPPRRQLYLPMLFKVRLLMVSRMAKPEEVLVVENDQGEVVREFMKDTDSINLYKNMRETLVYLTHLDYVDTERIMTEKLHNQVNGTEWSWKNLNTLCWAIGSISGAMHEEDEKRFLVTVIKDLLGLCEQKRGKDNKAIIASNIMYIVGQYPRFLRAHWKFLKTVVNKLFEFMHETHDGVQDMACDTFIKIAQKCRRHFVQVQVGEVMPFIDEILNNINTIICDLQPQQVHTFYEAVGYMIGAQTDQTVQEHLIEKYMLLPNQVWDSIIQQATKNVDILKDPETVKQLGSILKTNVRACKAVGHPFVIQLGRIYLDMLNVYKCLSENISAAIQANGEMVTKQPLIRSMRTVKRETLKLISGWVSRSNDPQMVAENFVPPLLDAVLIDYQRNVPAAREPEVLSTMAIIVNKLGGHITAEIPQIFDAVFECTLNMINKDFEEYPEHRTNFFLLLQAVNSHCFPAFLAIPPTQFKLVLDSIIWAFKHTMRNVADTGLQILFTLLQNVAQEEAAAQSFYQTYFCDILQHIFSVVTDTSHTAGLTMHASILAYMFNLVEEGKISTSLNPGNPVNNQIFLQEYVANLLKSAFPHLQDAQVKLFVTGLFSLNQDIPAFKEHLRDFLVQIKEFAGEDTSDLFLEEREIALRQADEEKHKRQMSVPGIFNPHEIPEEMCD", "assay": "XPO1 occupancy assay in cultured cell lines (biotinylated probe pull-down, Simple Western)", "assay_type": "cell-based", "set-up": "Cells were collected, washed with PBS, and lysed with RIPA Buffer; endogenous in cells; host or cells: MM.1S", "settings": "MM.1S cells", "method": "b-LMB was tested for the ability to bind XPO1 protein. First, a dose-response curve was generated by exposing MM.1S cells to increasing concentrations of b-LMB (0 – 500 nM) for 1.5 hours in culture. The cells were then collected, lysed, and a portion of the lysate (input) was reserved prior to incubating the remaining lysate with streptavidin-tagged beads overnight. After extensive washes, b-LMB bound XPO1 was eluted from the beads, and XPO1 from both input and bead eluate was detected and quantified by Simple Western on Peggy Sue. Simple Western allows for the chemiluminescent detection of proteins from small volumes of samples that are run through a matrix-filled capillary. The signal is detected by a CCD camera which generates a digital image and then reports quantitative results. […] The protein signals for XPO1 detected by Simple Western in Figure 2A were reported as mean peak areas and were used to compare levels of XPO1 present in each sample to produce a graphical representation of the ratio of free XPO1 detected at each concentration of b-LMB (Figure 2B). “Ratio of bound XPO1” is defined as the ratio of the mean peak area of b-LMB bound XPO1 detected in the eluate compared to the mean peak area of all XPO1 detected in the input lysate, while “free-fraction” refers to the amount of XPO1 not occupied by SINE compound, as described later.\nThe cells were then collected and processed for the XPO1 occupancy assay. […] For these assays, the “ratio of free-fraction XPO1” is calculated by dividing the mean peak areas of XPO1 occupied by b-LMB (from the eluate) by the total amount of XPO1 (from the input).\nCells were collected, washed with PBS, and lysed with RIPA Buffer (Thermo Scientific) with protease inhibitors [Complete Ultra Tablets, Mini, EDTA-free, Easy pack (Roche), PhosStop Easy (Roche)]. A portion of the lysate was reserved (input) while the rest was added to washed Dynabeads MyOne Streptavidin T1 (Invitrogen) with RIPA Buffer. Samples were incubated overnight with constant rotation at 4°C. Beads were then washed 5 times with modified RIPA (150 mM NaCl, 50 mM Tris, 1% NP-40, 0.1% Na deoxycholate, 1 mM EDTA, pH 7.8). The reserved portion of lysates (input) and the beads were each mixed with Protein Simple buffer (Protein Simple), DTT (Invitrogen), and fluorescent standards (Protein Simple), then boiled at 95°C for 10 min. Eluates and inputs were analyzed using a capillary western method (Peggy Sue; Protein Simple) with the following primary antibodies: XPO1 (Santa Cruz) and β-actin (Santa Cruz). Capillary westerns were performed by SBH Sciences (Natick, MA). Peak areas corresponding to the protein molecular weight of XPO1 and actin were compared for sample inputs, while the ratio of XPO1 peak areas in eluate to input (ratio of bound or free-fraction XPO1) versus compound concentration were used in XLFit model 205 to calculate 50% and 90% occupancy curves."}, "[3]": {"tested_on": "several cancer cell lines", "settings": "human, 72 h", "method": "as §1\nCells were seeded in 96-well flat-bottom culture plates. […] Triplicate wells per concentration were used to calculate IC50 curves. The CellTiter-Fluor Cell Viability Assay (Promega) was performed as instructed by the manufacturer. The whole procedure was repeated three times. The inhibitory rate of cell growth was calculated using the formula: % growth inhibition = (1− OD extract treated)/OD negative control × 100)."}, "AML3": {"tested_on": "AML3", "assay": "MTT cytotoxicity assay", "assay_type": "cell-based", "settings": "72 hours, read-out: IC50"}, "MM.1S": {"tested_on": "MM.1S", "assay": "MTT cytotoxicity assay", "assay_type": "cell-based", "settings": "Homo sapiens, MM1.S, 72 hours, read-out: IC50"}, "HCT-116": {"tested_on": "HCT-116", "assay": "MTT cytotoxicity assay", "assay_type": "cell-based", "settings": "Homo sapiens, 72 hours, read-out: IC50"}, "AML2": {"tested_on": "AML2", "assay": "MTT cytotoxicity assay", "assay_type": "cell-based", "settings": "72 hours, read-out: IC50"}, "[4]": {"settings": "read-out: Rev GFP IC50 (nM), U2OS Rev-GFP cells, unmodified and biotinylated SINE compounds"}, "[5]": {"settings": "biotinylated SINE compound alone, direct binding"}, "[6]": {"settings": "biotinylated SINE compound alone, direct binding, read-out: 50% Occupancy"}, "[7]": {"settings": "read-out: Rev-GFP IC50 (μM), U2OS Rev-GFP cells"}, "[8]": {"settings": "SINE compound 1 hour, then 1 nM b-LMB […]"}, "[9]": {"settings": "SINE compound 1 hour, then 1 nM b-LMB […], read-out: Avg 50% Occupancy"}, "[10]": {"settings": "4 h, read-out: Rev-GFP (nM), U2OS cells stably expressing Rev-GFP, 4 hours treatment"}},
  "note": "Where two headings read alike, the source gives them in different places.",
  "data": [
    {"smiles": "O=C1N[C@H]2[C@H](CS[C@H]2CCCCC(=O)Oc2cc(-c3ncn(/C=C\\C(=O)N4CC(F)(F)C4)n3)cc(C(F)(F)F)c2)N1", "note": "[KPT-9058]", "values": [
      {"measurement": "IC50", "setting": "[1]", "value": 110, "unit": "nM"},
      {"measurement": "fold less cytotoxic compared to unmodified counterpart", "setting": "[1]", "value": "~6", "unit": "fold"},
      {"measurement": "IC50", "setting": "[2]; [4]", "value": 961, "unit": "nM"},
      {"measurement": "90% Occupancy", "setting": "XPO1; [5]", "value": 0.69, "unit": "µM"},
      {"measurement": "EC50", "setting": "XPO1; [6]", "value": 120, "unit": "nM"}
    ]},
    {"smiles": "CC(C)(C)C(=O)NNC(=O)/C=C\\n1cnc(-c2cc(C(F)(F)F)cc(C(F)(F)F)c2)n1", "note": "[KPT-350]", "values": [
      {"measurement": "IC50", "setting": "[2]; [7]", "value": 170, "unit": "nM"},
      {"measurement": "Avg 90% Occupancy (μM)", "setting": "XPO1; [8]", "value": "6.45 +/− 3.36 (n = 3) μM"},
      {"measurement": "EC50", "setting": "XPO1; [9]", "value": 630, "unit": "nM"}
    ]},
    {"smiles": "NC(=O)/C(=C/n1cnc(-c2cc(C(F)(F)F)cc(C(F)(F)F)c2)n1)c1cncnc1", "note": "[KPT-8602]", "values": [
      {"measurement": "IC50", "setting": "[1]", "value": 19, "unit": "nM"},
      {"measurement": "IC50", "setting": "[2]; [4]", "value": 42, "unit": "nM"},
      {"measurement": "IC50", "setting": "[2]; [7]", "value": 40, "unit": "nM"},
      {"measurement": "Avg 90% Occupancy (μM)", "setting": "XPO1; [8]", "value": "1.1 +/− 1.03 (n = 2) μM"},
      {"measurement": "90% Occupancy", "setting": "XPO1; followed by 0.1 μM KPT-9511 as probe", "value": 0.11, "unit": "µM"}
    ]},
    {"smiles": "COc1cc(-c2ncn(/C=C/C(=O)OC(C)C)n2)cc(C(F)(F)F)c1", "note": "[KPT-301]", "values": [
      {"measurement": "XPO1 binding in the occupancy assay (negative control)", "setting": "XPO1; 0 – 10 μM, then 1 nM b-LMB, data not shown", "value": "no XPO1 bound"}
    ]},
    {"smiles": "CCC(C=CC1OC(=O)C=CC1C)=CC(C)CC=CC(C)=CC(C)C(=O)C(C)C(O)C(C)CC(C)=CC(=O)NCCCCCCNC(=O)CCCCC1SCC2NC(=O)NC21", "note": "(stereo not shown) [b-LMB, reference compound]", "values": [
      {"measurement": "fold less cytotoxic than unmodified LMB", "setting": "[3]", "value": "6 – 30 fold"},
      {"measurement": "IC50", "setting": "AML3", "value": 4.68, "unit": "nM"},
      {"measurement": "IC50", "setting": "MM.1S", "value": 3.1, "unit": "nM"},
      {"measurement": "IC50", "setting": "[2]; [10]", "value": 0.11, "unit": "nM"},
      {"measurement": "IC50", "setting": "HCT-116", "value": 6, "unit": "nM"},
      {"measurement": "amount of b-LMB necessary to occupy 90% of XPO1", "setting": "XPO1; b-LMB […], direct binding, n = 3", "value": "2.53 ± 1.72", "unit": "nM"},
      {"measurement": "EC50", "setting": "XPO1; b-LMB […], direct binding, n = 3, read-out: amount of b-LMB necessary to occupy 50% of XPO1", "value": 0.27, "unit": "nM"},
      {"measurement": "IC50", "setting": "AML2", "value": 2.53, "unit": "nM"}
    ]},
    {"smiles": "O=C(/C=C\\n1cnc(-c2cc(C(F)(F)F)cc(C(F)(F)F)c2)n1)N1CC(F)(F)C1", "note": "[KPT-276]", "values": [
      {"measurement": "IC50", "setting": "[1]", "value": 18, "unit": "nM"},
      {"measurement": "IC50", "setting": "[2]; [4]", "value": 53, "unit": "nM"}
    ]},
    {"smiles": "CCC(=C/[C@H](C)C/C=C/C(C)=C/[C@@H](C)C(=O)[C@@H](C)[C@H](O)[C@@H](C)C/C(C)=C/C(=O)O)/C=C/[C@@H]1OC(=O)C=C[C@@H]1C", "note": "[LMB, leptomycin B, reference compound]", "values": [
      {"measurement": "IC50", "setting": "AML3", "value": 0.68, "unit": "nM"},
      {"measurement": "IC50", "setting": "MM.1S", "value": 0.46, "unit": "nM"},
      {"measurement": "IC50", "setting": "[2]; [10]", "value": 0.16, "unit": "nM"},
      {"measurement": "IC50", "setting": "HCT-116", "value": 0.19, "unit": "nM"},
      {"measurement": "IC50", "setting": "AML2", "value": 0.39, "unit": "nM"}
    ]},
    {"smiles": "O=C(/C=C\\n1cnc(-c2cc(C(F)(F)F)cc(C(F)(F)F)c2)n1)NNc1ccccn1", "note": "[Verdinexor, verdinexor]", "values": [
      {"measurement": "IC50", "setting": "[2]; [7]", "value": 10, "unit": "nM"},
      {"measurement": "Avg 90% Occupancy (μM)", "setting": "XPO1; [8]", "value": "0.34 +/− 0.08 (n = 3) μM"},
      {"measurement": "EC50", "setting": "XPO1; [9]", "value": 40, "unit": "nM"}
    ]},
    {"smiles": "NC(=O)/C(=C/n1cnc(-c2cc(OC(=O)CCCC[C@@H]3SC[C@@H]4NC(=O)N[C@@H]43)cc(C(F)(F)F)c2)n1)c1cncnc1", "note": "[KPT-9511]", "values": [
      {"measurement": "IC50", "setting": "[1]", "value": 280, "unit": "nM"},
      {"measurement": "fold less cytotoxic compared to unmodified counterpart", "setting": "[1]", "value": "~15", "unit": "fold"},
      {"measurement": "IC50", "setting": "[2]; [4]", "value": 230, "unit": "nM"},
      {"measurement": "90% Occupancy", "setting": "XPO1; [5]", "value": 0.61, "unit": "µM"},
      {"measurement": "EC50", "setting": "XPO1; [6]", "value": 180, "unit": "nM"}
    ]}
  ]
}
